Results as given in ChEMBL document CHEMBL4811230, “In Planta Discovery and Chemical Synthesis of Bracelet Cystine Knot Peptides from Rinorea bengalensis” (J Nat Prod, 2021).
Starred links: 1 amine or outer side, 2 acyl side, 3 side chain; linkers in the order of their positions; H or OH if unused. Positions of bridges follow the written chain, without caps; N, C: chain ends. Non-standard residues stand in square brackets, D forms with d. Residues, ends and D or L forms follow the SMILES beside them. X1 = CN[C@@H](C)[C@H](N[*:1])C(=O)[*:2]

What was measured:
MDA-MB-231 = experiment: Cytotoxicity against human MDA-MB-231 cells assessed as decrease in cell viability measured after 24 hrs by MTT assay; type: functional
PC-3 = experiment: Cytotoxicity against human PC-3 cells assessed as decrease in cell viability measured after 24 hrs by MTT assay; type: functional
[1] = Hemolytic activity against human RBC incubated for 1 hr; type: ADME, cell-based, Erythrocyte; conditions: red blood cells (erythrocytes), read-out: CC50
[2] = Cytotoxicity against HUVEC cells assessed as decrease in cell viability measured after 24 hrs by MTT assay; type: cell-based; conditions: human

SMILES	CC50 (MDA-MB-231) [nM]	CC50 (PC-3) [nM]	HC50 at 1 h [1] [µM]	CC50 at 24 h [2] [nM]
CC[C@H](C)[C@@H]1NC(=O)[C@@H]2CSSC[C@@H]3NC(=O)[C@H](C(C)C)NC(=O)[C@H](CCCCN)NC(=O)[C@H](CC(N)=O)NC(=O)[C@H](CCCCN)NC(=O)[C@@H]4CSSC[C@H](NC(=O)[C@H](CO)NC(=O)[C@H](CCC(=O)O)NC(=O)CNC(=O)[C@H](CSSC[C@H](NC(=O)CNC(=O)[C@H]([C@@H](C)CC)NC(=O)[C@H](C(C)C)NC(=O)[C@H](CO)NC(=O)[C@H](CO)NC1=O)C(=O)N[C@@H](CO)C(=O)N4)NC(=O)[C@@H]1CCCN1C(=O)[C@H]([C@@H](C)CC)NC(=O)[C@H](C)NC(=O)[C@H](CCCNC(=N)N)NC(=O)[C@H](Cc1ccc(O)cc1)NC3=O)C(=O)N[C@@H](C(C)C)C(=O)N[C@@H](Cc1ccc(O)cc1)C(=O)N[C@@H]([C@@H](C)CC)C(=O)N1CCC[C@H]1C(=O)N2 (cyclo(AIPCGESCVYIPCISSVIGCSCKNKVCYR); disulfide 4-20, 8-22, 13-27)	800	500	8.8	
CC[C@H](C)[C@@H]1CC(=O)[C@H](C)NC(=O)[C@H](CCCNC(=N)N)NC(=O)[C@H](Cc2ccc(O)cc2)NC(=O)[C@@H]2CSSC[C@@H]3NC(=O)[C@@H]4CCCN4C(=O)[C@H]([C@@H](C)CC)NC(=O)[C@H](Cc4ccc(O)cc4)NC(=O)[C@H](C(C)C)NC(=O)[C@@H]4CSSC[C@H](NC(=O)[C@H](CO)NC(=O)[C@H](CSSC[C@H](NC(=O)[C@@H]5CCCN5C1=O)C(=O)NCC(=O)N[C@@H](CCC(=O)O)C(=O)N[C@@H](CO)C(=O)N4)NC(=O)CNC(=O)[C@H]([C@@H](C)CC)NC(=O)[C@H](C)NC(=O)[C@H](C)NC(=O)[C@H]([C@H](C)O)NC(=O)[C@H](CC(C)C)NC3=O)C(=O)N[C@@H](CCCCN)C(=O)N[C@@H](CC(N)=O)C(=O)N[C@@H](CCCCN)C(=O)N[C@@H](C(C)C)C(=O)N2	600	300		200
CC[C@H](C)[C@@H]1NC(=O)[C@@H]2CSSC[C@@H]3NC(=O)[C@H](C(C)C)NC(=O)[C@H](CCCCN)NC(=O)[C@H](CC(=O)NN)NC(=O)[C@H](CCCCN)NC(=O)[C@@H]4CSSC[C@H](NC(=O)[C@H](CO)NC(=O)[C@H](CCC(=O)O)NC(=O)CNC(=O)[C@H](CSSC[C@H](NC(=O)CNC(=O)[C@H]([C@@H](C)CC)NC(=O)[C@H](C(C)C)NC(=O)[C@H](CCC(N)=O)NC(=O)[C@H](CO)NC1=O)C(=O)N[C@@H](CCCCN)C(=O)N4)NC(=O)[C@@H]1CCCN1C(=O)[C@H]([C@@H](C)CC)NC(=O)[C@H](C)NC(=O)[C@H](CCCNC(=N)N)NC(=O)[C@H](Cc1ccc(O)cc1)NC3=O)C(=O)N[C@@H](C(C)C)C(=O)N[C@@H](Cc1ccc(O)cc1)C(=O)N[C@@H]([C@@H](C)CC)C(=O)N1CCC[C@H]1C(=O)N2	2200	1500		1000
CC[C@H](C)[C@@H]1NC(=O)[C@H](CCCNC(=N)N)NC(=O)CNC(=O)[C@H](CCCCN)NC(=O)[C@@H]2CSSC[C@@H]3NC(=O)[C@H](CO)NC(=O)[C@H](CCC(=O)O)NC(=O)CNC(=O)[C@@H]4CSSC[C@H](NC(=O)CNC(=O)[C@H]([C@@H](C)CC)NC(=O)[C@H](C(C)C)NC(=O)[C@H](CO)NC(=O)[C@H]([C@@H](C)O)NC(=O)[C@H](Cc5ccccc5)NC(=O)[C@H](CSSC[C@H](NC1=O)C(=O)N[C@@H](C(C)C)C(=O)N[C@@H](CCCNC(=N)N)C(=O)N[C@@H](Cc1ccccc1)C(=O)N[C@@H](CCC(N)=O)C(=O)N4)NC(=O)[C@H](Cc1ccc(O)cc1)NC(=O)[C@H]([C@@H](C)O)NC(=O)[C@H]([C@@H](C)O)NC(=O)[C@H]([C@@H](C)CC)NC(=O)[C@H](CCSC)NC(=O)CNC3=O)C(=O)N[C@@H](CO)C(=O)N2 (cyclo(CFTSVIGCSCKGRICVRFQCGESCGMITTY); disulfide 1-15, 8-20, 10-24) [listing 1 of 2 here]	4100	1300		
CC[C@H](C)[C@@H]1NC(=O)[C@@H]2CSSC[C@@H]3NC(=O)[C@H](C(C)C)NC(=O)[C@H](CCCCN)NC(=O)[C@H](CC(N)=O)NC(=O)[C@H](CCC(N)=O)NC(=O)[C@@H]4CSSC[C@H](NC(=O)[C@H](CO)NC(=O)[C@H](CCC(=O)O)NC(=O)CNC(=O)[C@H](CSSC[C@H](NC(=O)CNC(=O)[C@H]([C@H](C)NC)NC(=O)[C@H](C(C)C)NC(=O)[C@H](C)NC(=O)[C@H](CO)NC1=O)C(=O)N[C@@H](CCCCN)C(=O)N4)NC(=O)[C@@H]1CCCN1C(=O)[C@H]([C@@H](C)CC)NC(=O)[C@H](C)NC(=O)[C@H](CCCNC(=N)N)NC(=O)[C@H](Cc1ccc(O)cc1)NC3=O)C(=O)N[C@@H](C(C)C)C(=O)N[C@@H](Cc1ccc(O)cc1)C(=O)N[C@@H]([C@@H](C)CC)C(=O)N1CCC[C@H]1C(=O)N2 (cyclo(AIPCGESCVYIPCISAV[X1]GCKCQNKVCYR); disulfide 4-20, 8-22, 13-27) [listing 1 of 2 here]			20.1	
CC[C@H](C)[C@@H]1NC(=O)[C@H](CC(C)C)NC(=O)[C@H](C)NC(=O)[C@H]([C@H](C)O)NC(=O)[C@H](C(C)C)NC(=O)[C@H]([C@H](C)O)NC(=O)[C@H](CS)NC(=O)[C@@H]2CCCN2C1=O	1500	700	21.9	900
CC[C@H](C)[C@@H]1NC(=O)[C@H](C)NC(=O)[C@H](CO)NC(=O)[C@H](CO)NC(=O)[C@H]([C@@H](C)CC)NC(=O)[C@@H]2CSSC[C@@H]3NC(=O)[C@H](C(C)C)NC(=O)[C@H](CCCCN)NC(=O)[C@H](CO)NC(=O)[C@H](CCCCN)NC(=O)[C@@H]4CSSC[C@H](NC(=O)[C@H](CO)NC(=O)[C@H](CCC(=O)O)NC(=O)CNC(=O)[C@H](CSSC[C@H](NC(=O)CNC1=O)C(=O)N[C@@H](CO)C(=O)N4)NC(=O)[C@@H]1CCCN1C(=O)[C@H]([C@@H](C)CC)NC(=O)CNC(=O)[C@H](CC(N)=O)NC(=O)[C@H](CCCNC(=N)N)NC(=O)[C@H](Cc1ccc(O)cc1)NC3=O)C(=O)N[C@@H](C(C)C)C(=O)N[C@@H](Cc1c[nH]c3ccccc13)C(=O)N[C@@H]([C@@H](C)CC)C(=O)N1CCC[C@H]1C(=O)N2 (cyclo(AIGCSCKSKVCYRNGIPCGESCVWIPCISS); disulfide 4-18, 6-22, 11-27)	1100	600	18.5	500
CC[C@H](C)[C@@H]1NC(=O)[C@@H]2CSSC[C@@H]3NC(=O)[C@H](C(C)C)NC(=O)[C@H](CCCCN)NC(=O)[C@H](CC(N)=O)NC(=O)[C@H](CCC(N)=O)NC(=O)[C@@H]4CSSC[C@H](NC(=O)[C@H](CO)NC(=O)[C@H](CCC(=O)O)NC(=O)CNC(=O)[C@H](CSSC[C@H](NC(=O)CNC(=O)[C@H]([C@H](C)NC)NC(=O)[C@H](C(C)C)NC(=O)[C@H](C)NC(=O)[C@H](CO)NC1=O)C(=O)N[C@@H](CCCCN)C(=O)N4)NC(=O)[C@@H]1CCCN1C(=O)[C@H]([C@@H](C)CC)NC(=O)[C@H](C)NC(=O)[C@H](CCCNC(=N)N)NC(=O)[C@H](Cc1ccc(O)cc1)NC3=O)C(=O)N[C@@H](C(C)C)C(=O)N[C@@H](Cc1ccc(O)cc1)C(=O)N[C@@H]([C@@H](C)CC)C(=O)N1CCC[C@H]1C(=O)N2 (cyclo(AIPCGESCVYIPCISAV[X1]GCKCQNKVCYR); disulfide 4-20, 8-22, 13-27) [listing 2 of 2 here]	2300	1200		
CC[C@H](C)[C@@H]1NC(=O)[C@H](CCCNC(=N)N)NC(=O)CNC(=O)[C@H](CCCCN)NC(=O)[C@@H]2CSSC[C@@H]3NC(=O)[C@H](CO)NC(=O)[C@H](CCC(=O)O)NC(=O)CNC(=O)[C@@H]4CSSC[C@H](NC(=O)CNC(=O)[C@H]([C@@H](C)CC)NC(=O)[C@H](C(C)C)NC(=O)[C@H](CO)NC(=O)[C@H]([C@@H](C)O)NC(=O)[C@H](Cc5ccccc5)NC(=O)[C@H](CSSC[C@H](NC1=O)C(=O)N[C@@H](C(C)C)C(=O)N[C@@H](CCCNC(=N)N)C(=O)N[C@@H](Cc1ccccc1)C(=O)N[C@@H](CCC(N)=O)C(=O)N4)NC(=O)[C@H](Cc1ccc(O)cc1)NC(=O)[C@H]([C@@H](C)O)NC(=O)[C@H]([C@@H](C)O)NC(=O)[C@H]([C@@H](C)CC)NC(=O)[C@H](CCSC)NC(=O)CNC3=O)C(=O)N[C@@H](CO)C(=O)N2 (cyclo(CFTSVIGCSCKGRICVRFQCGESCGMITTY); disulfide 1-15, 8-20, 10-24) [listing 2 of 2 here]			> 33	1200
CC(C)C[C@@H]1NC(=O)CNC(=O)[C@H](CC(N)=O)NC(=O)[C@H](CCCNC(=N)N)NC(=O)[C@H]([C@@H](C)O)NC(=O)[C@@H]2CSSC[C@@H]3NC(=O)[C@H]([C@@H](C)O)NC(=O)CNC(=O)CNC(=O)[C@H](C(C)C)NC(=O)[C@@H]4CSSC[C@H](NC(=O)[C@H]([C@@H](C)O)NC(=O)[C@H](CSSC[C@H](NC(=O)[C@H](C(C)C)NC(=O)[C@@H]5CCCN5C1=O)C(=O)NCC(=O)N[C@@H](CCC(=O)O)C(=O)N[C@@H]([C@@H](C)O)C(=O)N4)NC(=O)CNC(=O)[C@@H]1CCCN1C(=O)[C@H]([C@@H](C)O)NC(=O)[C@H](CC(N)=O)NC3=O)C(=O)N[C@@H](CO)C(=O)N[C@@H](Cc1c[nH]c3ccccc13)C(=O)N1CCC[C@H]1C(=O)N[C@@H](C(C)C)C(=O)N2	5100	3100		
